The record followed here is ChEMBL document CHEMBL1221353, “Synthesis and evaluation of amides surrogates of dopamine D3 receptor ligands” (Bioorg Med Chem Lett, 2010).

pKi: −log10 of the molar value.

For series [1], the target named is T1, Alpha-1A adrenergic receptor (Homo sapiens, UniProt P35348).
T1 sequence (P35348 whole entry): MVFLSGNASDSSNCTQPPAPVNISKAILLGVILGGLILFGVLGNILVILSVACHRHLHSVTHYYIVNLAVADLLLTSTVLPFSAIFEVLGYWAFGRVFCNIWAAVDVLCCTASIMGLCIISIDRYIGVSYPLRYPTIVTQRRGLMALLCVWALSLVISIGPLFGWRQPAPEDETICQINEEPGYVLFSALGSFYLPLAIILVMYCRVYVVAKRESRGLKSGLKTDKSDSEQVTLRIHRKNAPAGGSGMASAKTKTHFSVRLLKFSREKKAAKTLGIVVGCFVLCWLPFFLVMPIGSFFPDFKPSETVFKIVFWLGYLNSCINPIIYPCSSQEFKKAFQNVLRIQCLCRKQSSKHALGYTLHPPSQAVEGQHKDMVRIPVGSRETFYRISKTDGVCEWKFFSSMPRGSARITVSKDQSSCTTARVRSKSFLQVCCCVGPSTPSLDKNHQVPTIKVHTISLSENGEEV
In words: Displacement of [3H]prazosin from human adrenergic alpha1A receptor.

The target of series [2] is D(3) dopamine receptor (Homo sapiens, UniProt P35462). Nature of the series: biochemical.
D(3) dopamine receptor, sequence (P35462 whole entry): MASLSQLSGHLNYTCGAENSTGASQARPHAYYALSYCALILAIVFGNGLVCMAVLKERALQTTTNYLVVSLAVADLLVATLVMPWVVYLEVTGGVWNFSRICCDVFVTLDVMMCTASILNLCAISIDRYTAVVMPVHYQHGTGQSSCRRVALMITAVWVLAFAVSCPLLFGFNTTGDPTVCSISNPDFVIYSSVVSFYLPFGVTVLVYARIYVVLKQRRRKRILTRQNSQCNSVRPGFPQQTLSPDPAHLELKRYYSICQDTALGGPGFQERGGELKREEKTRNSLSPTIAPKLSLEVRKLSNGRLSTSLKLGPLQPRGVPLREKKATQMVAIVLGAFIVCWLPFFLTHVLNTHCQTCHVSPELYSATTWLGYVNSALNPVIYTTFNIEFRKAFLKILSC
Description: Displacement of [3H]spiperone from human dopamine D3 receptor expressed in CHO cells
The species named for series [3] is Homo sapiens. Nature of the series: Selectivity ratio of Ki for human adrenergic alpha1A receptor to Ki for human dopamine D3 receptor.
The target in series [4] is D(2) dopamine receptor (Homo sapiens, UniProt P14416). In words: Displacement of [3H]spiperone from human dopamine D2S receptor expressed in HEK293 cells. It is filed as cell-based.
D(2) dopamine receptor, sequence (P14416 whole entry): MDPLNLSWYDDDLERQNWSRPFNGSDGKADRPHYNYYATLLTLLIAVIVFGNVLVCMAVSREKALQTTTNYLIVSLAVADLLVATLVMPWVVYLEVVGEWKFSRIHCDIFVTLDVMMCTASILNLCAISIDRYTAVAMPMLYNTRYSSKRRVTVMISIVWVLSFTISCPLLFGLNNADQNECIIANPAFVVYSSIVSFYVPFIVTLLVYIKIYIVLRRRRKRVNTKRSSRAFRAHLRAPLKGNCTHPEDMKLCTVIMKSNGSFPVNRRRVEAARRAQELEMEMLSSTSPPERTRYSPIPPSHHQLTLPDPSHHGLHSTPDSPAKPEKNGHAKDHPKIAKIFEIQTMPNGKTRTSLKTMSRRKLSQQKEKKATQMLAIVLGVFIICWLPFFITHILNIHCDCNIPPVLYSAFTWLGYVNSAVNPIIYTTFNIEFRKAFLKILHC
The species entered for series [5] is Homo sapiens. Nature of the series: Selectivity ratio of Ki for human dopamine D2S receptor to Ki for human dopamine D3 receptor.
In series [6] the test system is Rattus norvegicus. Nature of the series: Absolute bioavailability in rat plasma at 10 mg/kg, po and 3 mg/kg, iv. It is filed as ADME, organism-based. Particulars: in vivo.
Series [7] has as its system Mus musculus. In words: Absolute bioavailability in mouse plasma at 10 mg/kg dose po and iv. It is filed as ADME, organism-based. The conditions noted are these: in vivo.

In the case of `COc1ccccc1N1CCN(CCCCNc2ccc3ccccc3n2)CC1`, in series [1], the pKi was 8.22.

As to `Clc1cccc(N2CCN(CCCCNc3ccccn3)CC2)c1Cl`, the pKi in series [1] was 7.48.

Consider `FC(F)(F)c1cccc(N2CCN(CCCCNc3ccc4ccccc4n3)CC2)c1`, for which the pKi was 8.80 in series [2], 7.28 in series [4] and 7.92 in series [1]. Also, the Ratio Ki in series [3] was found to be 7.5; in series [5], 33.

As to `Clc1cccc(N2CCN(CCCCNc3ccc(-c4ccccc4)cn3)CC2)c1Cl`, the pKi in series [2] is 9.23; in series [4], 7.39; in series [1], 7.68. Also, the Ratio Ki in series [3] was determined as 35; in series [5], 69.

For `COc1ccccc1N1CCN(CCCCNc2nccc3ccccc23)CC1`, the pKi was 9.00 in series [2], 7.15 in series [4] and 8.22 in series [1]. Moreover, the Ratio Ki in series [3] was found to be 6.3; in series [5], 70.

For `Clc1cccc(N2CCN(CCCCNc3cc(-c4ccccc4)ccn3)CC2)c1Cl`, the values for the Ratio Ki in series [3] and in series [5] were 106 and 334, respectively. The pKi is 6.74 in series [4] and 7.24 in series [1].

In series [1], `Clc1cccc(N2CCN(CCCCNc3nccc4ccccc34)CC2)c1Cl` showed a pKi of 7.22.

Turning to `Cc1cccc(N2CCN(CCCCNc3ccccn3)CC2)c1C`, the pKi in series [2] is 7.92; in series [4] it was 6.68; in series [1] it was 7.40. Moreover, the Ratio Ki in series [3] was 3; in series [5], 17.

In the case of `Fc1ccccc1N1CCN(CCCCNc2ccccn2)CC1`, the figures for the pKi in series [2], in series [4] and in series [1] were 7.96, 6.88 and 7.77, respectively. Also, the Ratio Ki in series [3] is 1.5; in series [5], 12.

Consider `FC(F)(F)c1cccc(N2CCN(CCCCNc3nc(-c4ccccc4)cs3)CC2)c1`, for which the figures for the pKi in series [2], in series [4] and in series [1] were 7.89, 5.61 and 7.14, respectively. In addition, the Ratio Ki in series [3] came to 5.4; in series [5], 183.

Turning to `Cc1ccccc1N1CCN(CCCCNc2ccccn2)CC1`, the pKi is 7.49 in series [2], 6.42 in series [4] and 7.85 in series [1]. Besides, the values for the Ratio Ki in series [3] and in series [5] were 0.4 and 12, respectively.

In the case of `Fc1ccccc1N1CCN(CCCCNc2ccc(-c3ccccc3)cn2)CC1`, the pKi was 8.60 in series [2], 6.91 in series [4] and 8.00 in series [1]. Besides, the Ratio Ki in series [3] was found to be 4; in series [5], 49.

As to `FC(F)(F)c1cccc(N2CCN(CCCCNc3cc(-c4ccccc4)ccn3)CC2)c1`, the bioavailability was 0.65 in series [6] and 0.4 in series [7]. The Ratio Ki in series [3] turned out to be 157; in series [5], 256. In addition, the pKi in series [4] was 6.71; in series [1] it was 6.92.

`Clc1cccc(N2CCN(CCCCNc3ccc4ccccc4n3)CC2)c1Cl`: the results for the pKi in series [2], in series [4] and in series [1] were 9.22, 7.64 and 7.34, respectively. For the same molecule, the Ratio Ki in series [3] came to 77; in series [5], 39.

As for `Fc1ccccc1N1CCN(CCCCNc2cc(-c3ccccc3)ccn2)CC1`, the pKi in series [2] was 8.82; in series [4], 6.51; in series [1], 8.05. The Ratio Ki in series [3] stood at 6; in series [5], 206.

As for `FC(F)(F)c1cccc(N2CCN(CCCCNc3ccc(-c4ccccc4)cn3)CC2)c1`, the pKi in series [2] is 8.96; in series [4] it was 6.84; in series [1], 6.64. Further, the Ratio Ki in series [3] came out at 207; in series [5] it was 130.

Regarding `COc1ccccc1N1CCN(CCCCNc2ccccn2)CC1`, the negative logarithm of the Ki (pKi) in series [2] is 9.10; in series [4] it was 6.70; in series [1], 7.64. Further, the Ratio Ki in series [3] was found to be 29; in series [5], 247.

For `FC(F)(F)c1cccc(N2CCN(CCCCNc3nccc4ccccc34)CC2)c1`, the pKi is 9.00 in series [2], 7.24 in series [4] and 7.17 in series [1]. The Ratio Ki is 68 in series [3] and 58 in series [5].

As to `FC(F)(F)c1cccc(N2CCN(CCCCNc3ccccn3)CC2)c1`, the results for the pKi in series [2], in series [4] and in series [1] were 7.77, 6.70 and 6.23, respectively. In addition, the Ratio Ki in series [3] worked out at 35; in series [5], 12.

Take `FC(F)(F)c1cccc(N2CCN(CCCCNc3ncc(-c4ccccc4)o3)CC2)c1`: the pKi is 8.02 in series [2], 5.63 in series [4] and 6.57 in series [1]. Besides, the Ratio Ki stood at 28 in series [3] and 242 in series [5].
